Data reported in patent US20110070326A1, “OREGANO EXTRACT AND ITS COMPONENTS FOR ENHANCING VIGILANCE” (DSM IP ASSETS B.V., priority 2006, published 2011).

Experiments:
mouse = test: Porsolt's Forced Swim Test after subchronic oral gavage; type: in vivo; settings: 32 mg/kg p.o., −24, −5, −1 h
Procedure: This test, which detects antidepressant activity, was performed in the same manner as that described in example 7, except that the route of administering the compound and the doses were different. Oregano extract 4 was evaluated at 3 doses (75, 150, and 300 mg/kg), administered orally (p.o.) 24, 5, and 1 hour before the test, and compared with a vehicle control group. The thus administered […] was dissolved in tocopherol-stripped corn oil “vehicle”). The control group was administered vehicle (p.o.), while imipramine (32 mg/kg, p.o.; dissolved in water) was administered to a separate group as reference compound, 24, 5 and 1 h prior to the test.
Mice were individually placed in cylinders (Height=24.5 cm, Diameter=19.5 cm) containing 13.5 cm water (22° C.) from which they could not escape. The mice were placed in the water for 6 minutes, automatically viewed via a video camera and monitored by a commercially available software system (VideoMot2, TSE Systems GmbH, Germany), and the duration of immobility during the last 4 minutes was measured.
10 mice were studied per each of the five groups. Data were analyzed by comparing the treated groups and the positive control group with the vehicle group using Analysis of Variance (ANOVA) and the Bonferroni post-hoc test.

mice = test: Porsolt's Forced Swim Test (Behavioral Despair Test), i.p.; type: in vivo, mouse; settings: 32 mg/kg i.p., −30 min; 15 mice
Procedure: The test, which detects antidepressant activity, was carried out as described by Porsolt et al supra. Mice which are forced to swim in a situation from which they cannot escape rapidly become immobile. Antidepressants decrease the duration of immobility.
Mice were individually placed in cylinders (Height=24 cm, Diameter=13 cm) containing 10 cm water (22° C.) from which they could not escape. The mice were placed in the water for 6 minutes and the duration of immobility during the last 4 minutes was measured.
15 mice were studied per each of the four groups.
Oregano extract 1 was evaluated at 3 doses (10, 30 and 60 mg/kg), administered i.p. 30 minutes before the test, and compared with a control group, administered vehicle in the same manner. The thus administered […] was dissolved in vehicle (saline solution containing 3% (v/v) DMSO and 3% (v/v) Tween® 80). Venlafaxine (16 mg/kg, i.p.), as comparison substance, and imipramine (32 mg/kg, i.p.), as reference compound, were administered under the same experimental conditions.
Data were analyzed by comparing the treated groups with the control group using unpaired Student's t tests and are presented in Table 3.

[1] = biological target: T1, human serotonin re-uptake transporter (hSERT) (Homo sapiens, UniProt P31645); test: Serotonin uptake inhibition in HEK-293 cells expressing hSERT; type: cell-based; settings: single compounds; transfected HEK-293 cells, 20 nM 3H-serotonin, 30 minutes; read-out: IC50 for tritiated serotonin uptake
T1 construct: host or cells: HEK-293
T1 sequence (P31645 whole entry): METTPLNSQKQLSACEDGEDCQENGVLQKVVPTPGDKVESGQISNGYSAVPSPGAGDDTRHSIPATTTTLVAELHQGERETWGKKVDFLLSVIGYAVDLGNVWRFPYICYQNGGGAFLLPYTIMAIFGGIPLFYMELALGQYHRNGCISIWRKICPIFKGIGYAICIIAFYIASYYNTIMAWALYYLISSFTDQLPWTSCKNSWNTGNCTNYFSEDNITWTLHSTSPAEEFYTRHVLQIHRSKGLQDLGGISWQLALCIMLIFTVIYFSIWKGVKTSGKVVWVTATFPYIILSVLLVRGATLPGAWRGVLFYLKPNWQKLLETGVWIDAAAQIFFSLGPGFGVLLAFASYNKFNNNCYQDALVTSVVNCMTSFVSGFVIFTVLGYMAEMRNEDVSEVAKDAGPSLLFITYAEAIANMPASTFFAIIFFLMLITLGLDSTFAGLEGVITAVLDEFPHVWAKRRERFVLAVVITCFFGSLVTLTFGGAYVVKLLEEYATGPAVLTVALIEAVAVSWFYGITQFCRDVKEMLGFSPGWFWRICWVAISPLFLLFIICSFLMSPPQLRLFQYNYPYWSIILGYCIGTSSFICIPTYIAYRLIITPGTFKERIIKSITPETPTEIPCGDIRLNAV
Procedure: HEK-293 cells stably expressing the human serotonin re-uptake transporter (hSERT) were obtained from R. Blakely, Vanderbilt University, USA. The cells were routinely grown in Dulbecco's Modified Eagle's Medium, purchased from Bioconcept, Allschwil, Switzerland containing 10% fetal calf serum, penicillin, streptomycin, L-glutamine and the antibiotic G418 and passaged by trypsinisation. 1 day prior to the assay cells were seeded in the above mentioned medium. […] Serotonin uptake into the cells was determined by addition of radio-labeled (3H) serotonin (Amersham Biosciences GE Healthcare, Slough, UK) to a concentration of 20 nM, and incubation for 30 minutes at room temperature. Following removal of unincorporated label by gentle washing three times with the above buffer, incorporated serotonin was quantified by liquid scintillation counting.

[2] = biological target: T2, human dopamine transporter (hDAT) (Homo sapiens, UniProt Q01959); type: cell-based; settings: transfected CHO-Ki cells, 50 nM [3H]Dopamine; n = 2; read-out: IC50 for inhibition of dopamine reuptake
T2 construct: expressed in transfected cells; host or cells: CHO-Ki (CHO-K1)
T2 sequence (Q01959 whole entry): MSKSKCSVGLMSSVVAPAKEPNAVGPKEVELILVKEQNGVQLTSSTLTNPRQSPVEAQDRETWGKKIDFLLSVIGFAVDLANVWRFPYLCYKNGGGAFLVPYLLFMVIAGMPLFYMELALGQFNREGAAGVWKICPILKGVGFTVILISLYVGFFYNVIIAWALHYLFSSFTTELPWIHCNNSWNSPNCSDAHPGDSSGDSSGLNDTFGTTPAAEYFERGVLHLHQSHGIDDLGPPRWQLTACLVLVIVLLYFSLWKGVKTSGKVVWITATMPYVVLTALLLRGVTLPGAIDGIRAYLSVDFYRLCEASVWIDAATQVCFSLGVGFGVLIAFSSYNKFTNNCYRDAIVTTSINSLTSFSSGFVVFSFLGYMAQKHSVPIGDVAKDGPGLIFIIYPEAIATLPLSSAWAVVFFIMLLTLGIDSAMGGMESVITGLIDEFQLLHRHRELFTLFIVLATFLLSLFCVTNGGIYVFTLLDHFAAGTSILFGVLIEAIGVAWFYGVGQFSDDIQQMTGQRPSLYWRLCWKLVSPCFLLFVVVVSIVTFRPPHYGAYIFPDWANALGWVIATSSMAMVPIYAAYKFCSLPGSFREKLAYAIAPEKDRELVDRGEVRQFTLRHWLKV
Procedure: CHO-Ki/hDAT cells expressing the human dopamine transporter (hDAT) were plated before the assay. Cells (2×10^5/ml) were incubated with oregano extract and/or vehicle in modified Tris-HEPES buffer pH 7.1 at 25° C. for 20 minutes before addition of 50 nM [^3H]Dopamine for 10 minutes. Specific signal was determined in the presence of 10 μM nomifensine. Cells were then solubilized with 1% SDS lysis buffer. Reduction of [^3H]Dopamine uptake by 50 percent or more (≧50%) relative to vehicle controls indicates significant inhibitory activity.

| Compound | DURATION OF IMMOBILITY % change from control (mouse) [%] | DURATION OF IMMOBILITY (s) Mean ± s.e.m. (mouse; 10 mice) [s] | DURATION OF IMMOBILITY % change from control (mice) [%] | DURATION OF IMMOBILITY (s) Mean ± s.e.m. (mice) [s] | IC50 [1] [µM] | IC50 [2] [µM] |
| --- | --- | --- | --- | --- | --- | --- |
| CN(C)CCCN1c2ccccc2CCc2ccccc21 [Imipramine] | −50 | 64.59 ± 8.26 | −70 | 49.7 ± 7.9 |  |  |
| Cc1ccc(C(C)C)c(O)c1 [Thymol] |  |  |  |  | 5 |  |
| Cc1cc(O)c(C(C)C)cc1O [Thymoquinol] |  |  |  |  | 26.6 | 65.6 ± 1.2 |
